Results reported in US9278981B2, “Compounds and compositions for inhibiting the activity of ABL1, ABL2 and BCR-ABL1” (Novartis AG, priority 2012, dated 2016).

Tests used:
ABL1 (64-515) [1] = biological target: T1, ABL1 (64-515) (Homo sapiens (Human), UniProt P00519); assay: Caliper ABL1 (64-515) assay (microfluidic mobility shift); format: biochemical
Procedure: Expression and purification of human ABL was performed using standard expression purification procedures. […] The His-ABL was expressed in E. coli BL21 (DE3) and the ABL proteins were isolated by Ni-affinity on a Ni-NTA column (Qiagen). The His-tag was removed by PreScission protease (GE Healthcare) and the non-phosphoprylated ABL further purified on a Mono Q HR 10/10 (GE Healthcare, mono-phosphorylated ABL is about 10-20% of total ABL protein) and HiLoad 16/60 Superdex 200 size exclusion column (GE Healthcare).
All assays were performed in 384-well microtiter plates. Each assay plate contained 8-point serial dilutions for 40 test compounds, as well as four 8-point serial dilutions of staurosporine as a reference compound, plus 16 high and 16 low controls. Liquid handling and incubation steps were done on a Thermo CatX workstation equipped with Innovadyne Nanodrop Express. Between pipetting steps, tips were cleaned in wash cycles using wash buffer.
The assay plates were prepared by addition of 50 nL per well of compound solution in 90% DMSO. […] Plates with terminated kinase reactions were transferred to the Caliper LC3000 workstations for reading. Phosphorylated and unphosphorylated peptides were separated using the Caliper microfluidic mobility shift technology. Briefly, samples from terminated kinase reactions were applied to the chip. Analytes are transported through the chip by constant buffer flow and the migration of the substrate peptide is monitored by the fluorescence signal of its label. Phosphorylated peptide (product) and unphosphorylated peptide (substrate) are separated in an electric field by their charge/mass ratio. Kinase activities were calculated from the amounts of formed phospho-peptide. IC50 values were determined from percent inhibition values at different compound concentrations by non-linear regression analysis.
Test compounds were dissolved in DMSO (10 mM) and transferred into 1.4 mL flat bottom or V-shaped Matrix tubes carrying a unique 2D matrix. The stock solutions were stored at +2° C. if not used immediately. For the test procedure the vials were defrosted and identified by a scanner whereby a working sheet was generated that guided the subsequent working steps.
Compound dilutions were made in 96-well plates. This format enabled the assay of maximally 40 individual test compounds at 8 concentrations (single points) including 4 reference compounds. The dilution protocol included the production of “pre-dilution plates”, “master plates” and “assay plates”.
Polypropylene 96-well plates were used as pre-dilution plates. […] All dilution steps were done on a HamiltonSTAR robot.
These plates were used directly for the assay which was performed in a total volume of 9.05 μL.

ABL1 (64-515) [2] = biological target: T1, ABL1 (64-515); assay: Radio ABL1 (64-515) assay (radiometric filter-binding); format: biochemical
[3] = comparison of ortho substitution on the R3/R4 ring

T1 sequence (P00519 64-515): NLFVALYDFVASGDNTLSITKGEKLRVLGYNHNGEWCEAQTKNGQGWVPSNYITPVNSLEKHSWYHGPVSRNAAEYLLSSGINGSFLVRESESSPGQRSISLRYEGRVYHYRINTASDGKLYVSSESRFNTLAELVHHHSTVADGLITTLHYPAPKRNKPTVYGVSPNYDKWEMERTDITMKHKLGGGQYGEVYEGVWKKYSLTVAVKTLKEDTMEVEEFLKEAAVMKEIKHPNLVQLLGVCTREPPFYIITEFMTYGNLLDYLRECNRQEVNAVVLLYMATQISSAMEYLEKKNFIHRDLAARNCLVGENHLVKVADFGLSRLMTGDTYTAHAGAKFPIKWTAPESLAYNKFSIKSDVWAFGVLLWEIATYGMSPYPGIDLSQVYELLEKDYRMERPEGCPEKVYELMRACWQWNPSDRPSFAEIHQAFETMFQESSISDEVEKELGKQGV

SMILES | IC50 (ABL1 (64-515) [1]) | IC50 (ABL1 (64-515) [2]) | IC50 (ABL1 (64-515) [1]; [3])
N#Cc1ccc(F)c(-c2cc(C(=O)Nc3ccc(OC(F)(F)Cl)cc3)cnc2N2CC[C@@H](O)C2)c1 [Example 295, (R)—N-(4-(Chlorodifluoromethoxy)phenyl)-5-(5-cyano-2-fluorophenyl)-6-(3-hydroxypyrrolidin-1-yl)nicotinamide] | 0.7 nM |  | 
Nc1ncc(-c2cc(C(=O)Nc3ccc(OC(F)(F)F)cc3)cnc2N2CC[C@@H](O)C2)cc1F [Example 241, (R)-6′-Amino-5′-fluoro-2-(3-hydroxypyrrolidin-1-yl)-N-(4-(trifluoromethoxy)phenyl)-[3,3′-bipyridine]-5-carboxamide] | 1.3 nM | 1.7 nM | 
N#Cc1cncc(-c2cc(C(=O)Nc3ccc(SC(F)(F)F)cc3)cnc2N2CC[C@H](CO)C2)c1 [Example 191, (S)-5′-Cyano-2-(3-(hydroxymethyl)pyrrolidin-1-yl)-N-(4-((trifluoromethyl)thio)phenyl)-[3,3′-bipyridine]-5-carboxamide] | 0.9 nM | 8 nM | 
O=C(Nc1ccc(OC(F)(F)F)cc1)c1cnc(N2CC3CN(CCO)CC3C2)c(-c2cncnc2)c1 (stereo not drawn) [Example 281, 6-(5-(2-Hydroxyethyl)hexahydropyrrolo[3,4-c]pyrrol-2(1H)-yl)-5-(pyrimidin-5-yl)-N-(4-(trifluoromethoxy)phenyl)nicotinamide] | 11 nM |  | 
O=C(Nc1ccc(OC(F)(F)Cl)cc1)c1cnc(N2CC[C@H](CO)C2)c(-c2cncnc2)c1 [Example 174, (S)—N-(4-(Chlorodifluoromethoxy)phenyl)-6-(3-(hydroxymethyl)pyrrolidin-1-yl)-5-(pyrimidin-5-yl)nicotinamide] | 0.9 nM | 3 nM | 
O=C(Nc1ccc(OC(F)(F)F)cc1)c1cnc(N2CC[C@@H](O)C2)c(-c2cncc(Cl)c2)c1 [Example 50, (R)-5′-Chloro-2-(3-hydroxypyrrolidin-1-yl)-N-(4-(trifluoromethoxy)phenyl)-[3,3′-bipyridine]-5-carboxamide] | 1.1 nM | 3 nM | 
CN(C)C1CN(c2ncc(C(=O)Nc3ccc(OC(F)(F)F)cc3)cc2-c2cncnc2)C1 [Example 232] | 5.3 nM | 6 nM | 
N#Cc1cc(F)cc(-c2cc(C(=O)Nc3ccc(OC(F)(F)Cl)cc3)cnc2N2CC[C@@H](O)C2)c1 [Example 293, (R)—N-(4-(Chlorodifluoromethoxy)phenyl)-5-(3-cyano-5-fluorophenyl)-6-(3-hydroxypyrrolidin-1-yl)nicotinamide] | 0.7 nM |  | 
COC(=O)c1cc(F)cc(-c2cc(C(=O)Nc3ccc(OC(F)(F)F)cc3)cnc2N2CC[C@@H](O)C2)c1 [Example 62, (R)-Methyl 3-fluoro-5-(2-(3-hydroxypyrrolidin-1-yl)-5-((4-(trifluoromethoxy)phenyl)carbamoyl)pyridin-3-yl)benzoate] | 2.1 nM | 4 nM | 
Cc1ccc(F)cc1-c1cc(C(=O)Nc2ccc(OC(F)(F)Cl)cc2)cnc1N1C[C@H](O)[C@@H](O)C1 [Example 296, N-(4-(Chlorodifluoromethoxy)phenyl)-6-((3S,4S)-3,4-dihydroxypyrrolidin-1-yl)-5-(5-fluoro-2-methylphenyl)nicotinamide] | 1 nM |  | 
O=C(Nc1ccc(OC(F)(F)F)cc1)c1cnc(N2CC[C@@H](O)C2)c(-c2ccc(C(F)(F)F)nc2)c1 [Example 51, (R)-2-(3-Hydroxypyrrolidin-1-yl)-N-(4-(trifluoromethoxy)phenyl)-6′-(trifluoromethyl)-[3,3′-bipyridine]-5-carboxamide] | 2.9 nM | < 3 nM | 
O=C(Nc1ccc(OC(F)(F)F)cc1)c1cnc(N2CCCOCC2)c(-c2cncnc2)c1 [Example 233] | 4 nM | 2.4 nM | 
CN(CCO)c1ncc(C(=O)Nc2ccc(OC(F)(F)F)cc2)cc1-c1cncnc1 [Example 151, 6-((2-Hydroxyethyl)(methyl)amino)-5-(pyrimidin-5-yl)-N-(4-(trifluoromethoxy)phenyl)nicotinamide] | < 0.13 nM | < 3 nM | 
O=C(Nc1ccc(OC(F)(F)F)cc1)c1cnc(N2Cc3cn[nH]c3C2)c(-c2cncnc2)c1 [Example 228] | 1.1 nM | 1 nM | 
CN(CCO)c1ncc(C(=O)Nc2ccc(SC(F)(F)F)cc2)cc1-c1cncnc1 [Example 192, 6-((2-Hydroxyethyl)(methyl)amino)-5-(pyrimidin-5-yl)-N-(4-((trifluoromethyl)thio)phenyl)nicotinamide] | 1.3 nM | 2 nM | 
NCC1CN(c2ncc(C(=O)Nc3ccc(OC(F)(F)F)cc3)cc2-c2cncc(F)c2)CC1O (stereo not drawn) [Example 237, 2-(3-(Aminomethyl)-4-hydroxypyrrolidin-1-yl)-5′-fluoro-N-(4-(trifluoromethoxy)phenyl)-[3,3′-bipyridine]-5-carboxamide] | 1.2 nM | 0.6 nM | 
O=C(Nc1ccc(OC(F)(F)F)c(F)c1)c1cnc(N2CC[C@@H](O)C2)c(-c2cncc(F)c2)c1 [Example 199, (R)-5′-Fluoro-N-(3-fluoro-4-(trifluoromethoxy)phenyl)-2-(3-hydroxypyrrolidin-1-yl)-[3,3′-bipyridine]-5-carboxamide] | 1.2 nM | 3 nM | 
O=C(Nc1ccc(SC(F)(F)F)cc1)c1cnc(N2CC[C@H](CO)C2)c(-c2cncc(F)c2)c1 [Example 190, (S)-5′-Fluoro-2-(3-(hydroxymethyl)pyrrolidin-1-yl)-N-(4-((trifluoromethyl)thio)phenyl)-[3,3′-bipyridine]-5-carboxamide] | 0.5 nM | 5.9 nM | 

SMILES | IC50 (ABL1 (64-515) [1]) | IC50 (ABL1 (64-515) [2]) | IC50 (ABL1 (64-515) [1]; [3])
Cc1ccc(F)cc1-c1cc(C(=O)Nc2ccc(OC(F)(F)Cl)cc2)cnc1N1CC[C@@H](O)C1 [Example 294, (R)—N-(4-(Chlorodifluoromethoxy)phenyl)-5-(5-fluoro-2-methylphenyl)-6-(3-hydroxypyrrolidin-1-yl)nicotinamide] | 3 nM |  | 
CC1(O)CN(c2ncc(C(=O)Nc3ccc(OC(F)(F)F)cc3)cc2-c2cccnc2)C1 [Example 130, 2-(3-Hydroxy-3-methylazetidin-1-yl)-N-(4-(trifluoromethoxy)phenyl)-[3,3′-bipyridine]-5-carboxamide] | 1.2 nM | 3 nM | 
CN(CCO)c1ncc(C(=O)Nc2ccc(SC(F)(F)F)cc2)cc1-c1cncc(C#N)c1 [Example 194, 5′-Cyano-2-((2-hydroxyethyl)(methyl)amino)-N-(4-((trifluoromethyl)thio)phenyl)-[3,3′-bipyridine]-5-carboxamide] | 1.4 nM | 5 nM | 
CC(C)(O)c1cc(F)cc(-c2cc(C(=O)Nc3ccc(OC(F)(F)F)cc3)cnc2N2CC[C@@H](O)C2)c1 [Example 60, (R)-5-(3-Fluoro-5-(2-hydroxypropan-2-yl)phenyl)-6-(3-hydroxypyrrolidin-1-yl)-N-(4-(trifluoromethoxy)phenyl)nicotinamide] | 6 nM | 4 nM | 
O=C(Nc1ccc(OC(F)(F)C(F)(F)F)cc1)c1cnc(N2CC[C@@H](O)C2)c(-c2cncnc2)c1 [Example 220, (R)-6-(3-Hydroxypyrrolidin-1-yl)-N-(4-(perfluoroethoxy)phenyl)-5-(pyrimidin-5-yl)nicotinamide] | 2.3 nM | 6 nM | 
O=C(Nc1ccc(OC(F)(F)Cl)cc1)c1cnc(N2CCNC3(CC3)C2)c(-c2cncnc2)c1 [Example 256] | 0.4 nM | 2 nM | 
CCN(CCO)c1ncc(C(=O)Nc2ccc(OC(F)(F)Cl)cc2)cc1-c1cncc(F)c1 [Example 183, N-(4-(Chlorodifluoromethoxy)phenyl)-2-(ethyl(2-hydroxyethyl)amino)-5′-fluoro-[3,3′-bipyridine]-5-carboxamide] | 0.5 nM | 2 nM | 
N[C@@H]1CCCN(c2ncc(C(=O)Nc3ccc(OC(F)(F)Cl)cc3)cc2-c2cncnc2)C1 [Example 255] | 1.1 nM | 2.1 nM | 
Cc1ccc(-c2cc(C(=O)Nc3ccc(OC(F)(F)F)cc3)ccc2N2C[C@H](O)[C@@H](O)C2)cn1 [Example 9, 4-((3S,4S)-3,4-Dihydroxypyrrolidin-1-yl)-3-(6-methylpyridin-3-yl)-N-(4-(trifluoromethoxy)phenyl)benzamide] | 1.8 nM | 17 nM | 
N#Cc1ccc(F)cc1-c1cc(C(=O)Nc2ccc(OC(F)(F)Cl)cc2)cnc1N1CC[C@@H](O)C1 [Example 287, (R)—N-(4-(Chlorodifluoromethoxy)phenyl)-5-(2-cyano-5-fluorophenyl)-6-(3-hydroxypyrrolidin-1-yl)nicotinamide] | 1.5 nM |  | 
O=C(Nc1ccc(OC(F)(F)Cl)cc1)c1cnc(N2CC[C@@H](O)C2)c(-c2cc(F)cnc2Cl)c1 [Example 288, (R)-2′-Chloro-N-(4-(chlorodifluoromethoxy)phenyl)-5′-fluoro-2-(3-hydroxypyrrolidin-1-yl)-[3,3′-bipyridine]-5-carboxamide] | 1 nM |  | 
O=C(Nc1ccc(OC(F)(F)F)cc1Cl)c1cnc(N2CC[C@@H](O)C2)c(-c2cncnc2)c1 |  |  | 850 nM
Cc1ccncc1-c1cc(C(=O)Nc2ccc(OC(F)(F)Cl)cc2)cnc1N1CC[C@@H](O)C1 [Example 291, (R)—N-(4-(Chlorodifluoromethoxy)phenyl)-2-(3-hydroxypyrrolidin-1-yl)-4′-methyl-[3,3′-bipyridine]-5-carboxamide] | 0.2 nM |  | 
O=C(Nc1c(Cl)cc(OC(F)(F)F)cc1Cl)c1cnc(N2CC[C@@H](O)C2)c(-c2cncnc2)c1 |  |  | > 10000 nM
NC12CC1CN(c1ncc(C(=O)Nc3ccc(OC(F)(F)F)cc3)cc1-c1cncnc1)C2 (stereo not drawn) [Example 226, 6-(1-Amino-3-azabicyclo[3.1.0]hexan-3-yl)-5-(pyrimidin-5-yl)-N-(4-(trifluoromethoxy)phenyl)nicotinamide] | 1.9 nM |  | 
N#Cc1ncc(F)cc1-c1cc(C(=O)Nc2ccc(OC(F)(F)Cl)cc2)cnc1N1CC[C@@H](O)C1 [Example 292, (R)—N-(4-(Chlorodifluoromethoxy)phenyl)-2′-cyano-5′-fluoro-2-(3-hydroxypyrrolidin-1-yl)-[3,3′-bipyridine]-5-carboxamide] | 0.5 nM |  | 
COc1ncc(-c2cc(C(=O)Nc3ccc(OC(F)(F)Cl)cc3)cnc2N2CC[C@@H](O)C2)cc1C#N [Example 299, (R)—N-(4-(Chlorodifluoromethoxy)phenyl)-5′-cyano-2-(3-hydroxypyrrolidin-1-yl)-6′-methoxy-[3,3′-bipyridine]-5-carboxamide] | 0.3 nM |  | 
